Experimental data published in US20240409944A1, “COMPOSITIONS AND METHODS FOR THE INHIBITION OF TUMOR METASTASIS AND HORIZONTAL GENE TRANSFER” (The Regents of the University of Colorado, a body corporate, priority 2021, published 2024).
“Also recorded” adds a separate entry of the source. Where two headings read alike, the source gives them in different places. *1 amine or outer side, *2 acyl side, *3 side chain or, on linkers, in order; H or OH if unused. Where a SMILES comes first, the peptide text is derived from it. Bridges are numbered along the chain shown (N, C = ends). Roman numbers before positions name the chains, in order. [ ]: non-standard residue; d: D form. Actinocin(9to1) = Cc1c2oc3c(C)ccc(C(=O)[*:1])c3nc-2c(C(=O)[*:2])c(N)c1=O; NMeV = CN[C@H](C(=O)O)C(C)C; Sar = CNCC(=O)O

Legend:
[1] = tested on: RPE1-Venus-Parkin and MDA-MB-231-H2B-mCherry co-culture; test: Intercellular gene transfer in co-culture, flow cytometric analysis; type: cell-based
[2] = tested on: MDA-MB-231-H2B-mCherry and RPE1-Venus-Parkin co-culture; test: Cell entrapment (cell-in-cell structure formation), live-cell imaging; details: inhibitor treatment
[3] = tested on: MDASC43 & RPE1-VEP co-culture; test: 48-hour live cell imaging of CIC structures, MDASC43 co-culture; type: cell-based; details: 10 μM Doxorubicin, 100 μM Hygromycin B; for effect on number/frequency of CIC structures / average duration of CIC structures / time at which CIC structures were concentrated: 20 μM Actinomycin D; for average duration of CIC structures / time at which CIC structures were concentrated: alone or combined
[4] = tested on: HUVEC and MDA-MB-231-H2B-mCherry co-culture; test: Live cell imaging of CIC structures, HUVEC co-culture; type: cell-based, Human; details: preliminary
F-actin = F-actin stability (Alexa Fluor 594 Phalloidin); type: cell-based; details: co-cultured RPE1-VEP and MDA-MB-231-H2BmCherry
Experimental: Immunofluorescence microscopy was performed as described previously.

[5] = compound present in the co-culture, Hygromycin B 100 μM

Row | SMILES | effect on gene transfer [1, 5] | effect on number/frequency of CIC structures [3] | average duration of CIC structures [3] [h] | time at which CIC structures were concentrated [3] [h] | other results
1 | Cc1cn([C@H]2C=C[C@@H](CO)O2)c(=O)[nH]c1=O [Stavudine] | – | – | – | – | IC50 ([1]; later used as positive control of the screen, read-out: IC50 as potential tangocytosis inhibitor): 1830 nM
2 | C[C@@H](N)[C@H]1CC[C@H](C(=O)Nc2ccncc2)CC1 [Y27632] | effect of ROCKs perturbation by RNA depletion was phenocopied | – | – | – | effect on cell entrapment (cell-in-cell structure formation) [2]: effect of ROCKs perturbation by RNA depletion was phenocopied
3 | COc1cccc2c1C(=O)c1c(O)c3c(c(O)c1C2=O)C[C@@](O)(C(=O)CO)C[C@@H]3O[C@H]1C[C@H](N)[C@H](O)[C@H](C)O1 [Doxorubicin] | inhibiting | most CIC structure formation; also recorded: significantly increased | 11.5 | 13.6 to 25.1 | effect on CIC structure duration [3]: significantly higher; also recorded: significantly increased
4 | COc1ccc(C2CC(c3ccccc3)=NN2c2ccc(S(N)(=O)=O)cc2)cc1 (centres unmarked) [ML141] | decreased; also recorded: significant effect | – | – | – | –
5 | Cc1c2oc3c(C)ccc(C(=O)N[C@@H]4C(=O)N[C@H](C(C)C)C(=O)N5CCC[C@H]5C(=O)N(C)CC(=O)N(C)[C@@H](C(C)C)C(=O)O[C@@H]4C)c3nc-2c(C(=O)N[C@@H]2C(=O)N[C@H](C(C)C)C(=O)N3CCC[C@H]3C(=O)N(C)CC(=O)N(C)[C@@H](C(C)C)C(=O)O[C@@H]2C)c(N)c1=O [Actinomycin D] (I: T[dV]P[Sar][NMeV] / II: T[dV]P[Sar][NMeV]; ester I:1-I:C, II:1-II:C; linker I:N-II:N via Actinocin(9to1)) | – | significantly increased | 6.04 | 9.2 to 15.3 | effect on gene transfer [1]: prevents; gene transfer percentage [1]: 1.5%; average CIC structure duration ([4]; 100 μM Hygromycin B, 20 μM Actinomycin D, or combination, 1 focus field): 2.1 h; time at which CIC structures were concentrated ([4]; 100 μM Hygromycin B, 20 μM Actinomycin D, or combination): 2.9 to 5.1 h; effect on CIC structures (induction, frequency) [4]: induced
6 | C/C1=C/C(=O)O[C@@H]2C[C@@H](CC[C@H](C)/C=C\CC1)O[C@@](O)([C@@H]1CSC(=O)N1)C2 [Latrunculin B] | significantly decreased | – | – | – | concentration that resulted in the lowest percentage of gene transfer to RPE cells [1]: 3 µM; F-actin levels (F-actin): significantly decreased
